The values that follow come from the supplement of paper PMC10307832.

What all share (assay): relative viability (nuclei count vs DMSO), 5 days (fraction); higher = more cells survive
Compound in the assay “IDH-C35 + Decitabine”: Cc1ccccc1C(C(=O)NC1CCCCC1)N(C(=O)Cn1ccnc1C)c1cccc(F)c1 [IDH-C35] + Nc1ncn([C@H]2C[C@H](O)[C@@H](CO)O2)c(=O)n1 [Decitabine] (partner 2 µM)
In a few lines:
(§1)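 Lung cancer cell lines in 1536-well plates got either a single drug or a fixed anchor-drug dose together with five library-drug doses (not always all listed) in √10 steps, by pin tool, on the day after seeding. Nuclei were counted after 5 days, and relative viability is the treated-to-vehicle ratio of nuclei counts. Values are medians of duplicate plates.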

Compound in the assay “IDH-C35 + Dasatinib”: Cc1ccccc1C(C(=O)NC1CCCCC1)N(C(=O)Cn1ccnc1C)c1cccc(F)c1 [IDH-C35] + Cc1nc(Nc2ncc(C(=O)Nc3c(C)cccc3Cl)s2)cc(N2CCN(CCO)CC2)n1 [Dasatinib] (partner 0.075 µM)
In a few lines:
as §1

Compound in the assay “IDH-C35 + Vorinostat”: Cc1ccccc1C(C(=O)NC1CCCCC1)N(C(=O)Cn1ccnc1C)c1cccc(F)c1 [IDH-C35] + O=C(CCCCCCC(=O)Nc1ccccc1)NO [Vorinostat] (partner 1 µM)
Put shortly: as §1

Compound in assay [1]: CC1=C(C(=NN1)C)CC2=C(C3=C(S2)N(C(=O)N(C3=O)C)CC(C)C)C(=O)N4C[C@@H](CO4)O + O=C(CCCCCCC(=O)Nc1ccccc1)NO [Vorinostat] (partner 1 µM)
Put shortly:
as §1

For the cell line PC-3 [JPC-3], the relative viability is 0.843 with IDH-C35 + Decitabine (first compound 0.08 µM); 0.795 in the assay with IDH-C35 + Decitabine (first compound 0.253 µM); 0.864 with IDH-C35 + Decitabine (first compound 0.8 µM); 0.806 in the assay with IDH-C35 + Decitabine (first compound 2.53 µM); 0.807 in the assay with IDH-C35 + Decitabine (first compound 8 µM); 1 in the assay with IDH-C35 + Dasatinib (first compound 0.08 µM). Also, the relative viability with IDH-C35 + Dasatinib (first compound 0.253 µM) came to 0.923; with IDH-C35 + Dasatinib (first compound 0.8 µM), 1.02; with IDH-C35 + Dasatinib (first compound 2.53 µM), 0.989; in the assay with IDH-C35 + Dasatinib (first compound 8 µM), 0.972; in the assay with IDH-C35 + Vorinostat (first compound 0.08 µM), 0.748; in the assay with IDH-C35 + Vorinostat (first compound 0.253 µM) it was 0.815. Also, the relative viability with IDH-C35 + Vorinostat (first compound 0.8 µM) stood at 0.768; with IDH-C35 + Vorinostat (first compound 2.53 µM) it was 0.988; with IDH-C35 + Vorinostat (first compound 8 µM), 0.814; in assay [1] (first compound 0.0025 µM) it was 0.853; in assay [1] (first compound 0.007906 µM), 0.898; in assay [1] (first compound 0.025 µM), 0.741. In addition, the relative viability in assay [1] (first compound 0.07906 µM) amounted to 0.972; in assay [1] (first compound 0.25 µM) it was 0.797.
With EMC-BAC-2, the relative viability was determined as 1.03 with IDH-C35 + Decitabine (first compound 0.08 µM); 0.988 in the assay with IDH-C35 + Decitabine (first compound 0.253 µM); 1 with IDH-C35 + Decitabine (first compound 0.8 µM); 0.925 with IDH-C35 + Decitabine (first compound 2.53 µM); 0.993 with IDH-C35 + Decitabine (first compound 8 µM); 0.355 in the assay with IDH-C35 + Dasatinib (first compound 0.08 µM). Moreover, the relative viability in the assay with IDH-C35 + Dasatinib (first compound 0.253 µM) was found to be 0.346; with IDH-C35 + Dasatinib (first compound 0.8 µM), 0.348; with IDH-C35 + Dasatinib (first compound 2.53 µM), 0.298; in the assay with IDH-C35 + Dasatinib (first compound 8 µM) it was 0.281; in the assay with IDH-C35 + Vorinostat (first compound 0.08 µM), 0.474; with IDH-C35 + Vorinostat (first compound 0.253 µM), 0.464. In addition, the relative viability with IDH-C35 + Vorinostat (first compound 0.8 µM) was 0.47; with IDH-C35 + Vorinostat (first compound 2.53 µM), 0.528; with IDH-C35 + Vorinostat (first compound 8 µM), 0.542; in assay [1] (first compound 0.0025 µM), 0.487; in assay [1] (first compound 0.007906 µM), 0.513; in assay [1] (first compound 0.025 µM) it was 0.386. In addition, the values for the relative viability in assay [1] (first compound 0.07906 µM) and in assay [1] (first compound 0.25 µM) were 0.565 and 0.538, respectively.
Regarding LK-2, the relative viability in the assay with IDH-C35 + Decitabine (first compound 0.08 µM) came out at 0.327; with IDH-C35 + Decitabine (first compound 0.253 µM), 0.368; with IDH-C35 + Decitabine (first compound 0.8 µM), 0.205; with IDH-C35 + Decitabine (first compound 2.53 µM), 0.395; with IDH-C35 + Decitabine (first compound 8 µM), 0.289; in the assay with IDH-C35 + Dasatinib (first compound 0.08 µM), 0.243. Also, the relative viability with IDH-C35 + Dasatinib (first compound 0.253 µM) came to 0.295; with IDH-C35 + Dasatinib (first compound 0.8 µM), 0.27; in the assay with IDH-C35 + Dasatinib (first compound 2.53 µM), 0.299; with IDH-C35 + Dasatinib (first compound 8 µM), 0.335; in the assay with IDH-C35 + Vorinostat (first compound 0.08 µM) it was 0.352; in the assay with IDH-C35 + Vorinostat (first compound 0.253 µM), 0.273. Besides, the relative viability was determined as 0.216 in the assay with IDH-C35 + Vorinostat (first compound 0.8 µM); 0.34 in the assay with IDH-C35 + Vorinostat (first compound 2.53 µM); 0.165 with IDH-C35 + Vorinostat (first compound 8 µM); 0.342 in assay [1] (first compound 0.0025 µM); 0.272 in assay [1] (first compound 0.007906 µM); 0.208 in assay [1] (first compound 0.025 µM). The relative viability in assay [1] (first compound 0.07906 µM) came out at 0.266; in assay [1] (first compound 0.25 µM), 0.301.
For the cell line NCI-H2126, the relative viability with IDH-C35 + Decitabine (first compound 0.08 µM) amounted to 0.573; with IDH-C35 + Decitabine (first compound 0.253 µM) it was 0.602; with IDH-C35 + Decitabine (first compound 0.8 µM), 0.592; in the assay with IDH-C35 + Decitabine (first compound 2.53 µM), 0.526; with IDH-C35 + Decitabine (first compound 8 µM), 0.559; with IDH-C35 + Dasatinib (first compound 0.08 µM) it was 0.6. In addition, the relative viability with IDH-C35 + Dasatinib (first compound 0.253 µM) was 0.651; in the assay with IDH-C35 + Dasatinib (first compound 0.8 µM) it was 0.596; in the assay with IDH-C35 + Dasatinib (first compound 2.53 µM), 0.605; with IDH-C35 + Dasatinib (first compound 8 µM), 0.588; in the assay with IDH-C35 + Vorinostat (first compound 0.08 µM), 0.683; in the assay with IDH-C35 + Vorinostat (first compound 0.253 µM) it was 0.806. For the same cell line, the relative viability with IDH-C35 + Vorinostat (first compound 0.8 µM) was 0.698; in the assay with IDH-C35 + Vorinostat (first compound 2.53 µM), 0.5; with IDH-C35 + Vorinostat (first compound 8 µM), 0.61; in assay [1] (first compound 0.0025 µM), 0.919; in assay [1] (first compound 0.007906 µM) it was 0.894; in assay [1] (first compound 0.025 µM), 0.844. The relative viability in assay [1] (first compound 0.07906 µM) was 0.84; in assay [1] (first compound 0.25 µM), 0.674.
